Laboratory results as given in PMC10269561, “Absence of Clinically Meaningful Drug-Drug Interactions with Rezafungin: Outcome of Investigations” (Microbiology Spectrum, 2023).
Numbered stars: 1 amine (or outer) side, 2 acyl side, 3 side chain; on linkers, the order of the positions; unused ones are H or OH. Bridge positions count the residues as written; N and C are the ends. Square brackets hold non-standard residues; d marks the D form. Peptide text beside a SMILES is read from it. * marks the point of attachment. Orn(4R-OH,5R-OCH2CH2NMe3+) = C[N+](C)(C)CCO[C@@H](N[*:3])[C@H](O)C[C@H](N[*:1])C(=O)[*:2]; pTerphenylCO(4''-OnC5H11) = CCCCCOc1ccc(-c2ccc(-c3ccc(C(=O)*)cc3)cc2)cc1; hTyr(3S-OH,4S-OH) = N[C@H](C(=O)O)[C@H](O)[C@@H](O)c1ccc(O)cc1; Pro(3S-OH,4S-Me) = C[C@H]1CN[C@H](C(=O)O)[C@H]1O; Hyp = O=C(O)[C@@H]1C[C@@H](O)CN1

What was measured:
Format in all cases: in vitro ADME
CYP2C8 [1] = target: T1, CYP2C8 (Homo sapiens, UniProt P10632); assay: NC-153 time-dependent inhibition in human liver microsomes, CYP2C8; design: in human liver microsomal preparations; from tissue; host or cells: human liver microsomes; conditions: 0.1 to 25 μM
T1 sequence (P10632 1-490): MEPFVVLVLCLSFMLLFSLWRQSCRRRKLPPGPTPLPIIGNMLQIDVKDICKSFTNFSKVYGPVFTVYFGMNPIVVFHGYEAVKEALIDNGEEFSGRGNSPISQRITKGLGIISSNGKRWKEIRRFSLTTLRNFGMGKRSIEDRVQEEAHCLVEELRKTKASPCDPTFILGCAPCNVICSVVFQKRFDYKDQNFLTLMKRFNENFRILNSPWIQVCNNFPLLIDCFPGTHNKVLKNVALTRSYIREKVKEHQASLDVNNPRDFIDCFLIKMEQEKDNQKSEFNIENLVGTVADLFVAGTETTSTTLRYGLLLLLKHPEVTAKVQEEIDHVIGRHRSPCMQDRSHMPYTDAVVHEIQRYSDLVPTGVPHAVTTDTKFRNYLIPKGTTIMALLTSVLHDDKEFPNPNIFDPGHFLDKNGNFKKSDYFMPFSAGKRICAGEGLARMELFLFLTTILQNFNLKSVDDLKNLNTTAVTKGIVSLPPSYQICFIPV
Excerpt: (§1) Microbiology Spectrum Supplementary materials
(§2) Table S 4Summary of initial in vitro assessments […]
(§3) whether rezafungin can induce CYP isoforms 1A2, 2B6, or 3A4. mRNA expression) of CYP1A2 and CYP2B6, and, in the case of […]
(§4) Abbreviations: ABC = ATP binding cassette; BCRP = breast cancer resistance protein; BSEP = bile salt export pump; CYP = cytochrome P450; MATE = multidrug and toxic compound extrusion; MDCK = Madin-Darby canine kidney; MDR = multidrug resistance protein; mRNA = messenger ribonucleic acid; OAT = organic anion transporter; OATP = organic anion transporter protein; OCT – organic cation transporter; OCTN = organic cation transporter novel; P-gp = P-glycoprotein; SLC = solute carrier.

human OATP1B3 = human OATP1B3 (Homo sapiens, UniProt Q9NPD5); assay: NC-152 transporter inhibition, OATP1B3
Chain of human OATP1B3 (Q9NPD5 whole entry): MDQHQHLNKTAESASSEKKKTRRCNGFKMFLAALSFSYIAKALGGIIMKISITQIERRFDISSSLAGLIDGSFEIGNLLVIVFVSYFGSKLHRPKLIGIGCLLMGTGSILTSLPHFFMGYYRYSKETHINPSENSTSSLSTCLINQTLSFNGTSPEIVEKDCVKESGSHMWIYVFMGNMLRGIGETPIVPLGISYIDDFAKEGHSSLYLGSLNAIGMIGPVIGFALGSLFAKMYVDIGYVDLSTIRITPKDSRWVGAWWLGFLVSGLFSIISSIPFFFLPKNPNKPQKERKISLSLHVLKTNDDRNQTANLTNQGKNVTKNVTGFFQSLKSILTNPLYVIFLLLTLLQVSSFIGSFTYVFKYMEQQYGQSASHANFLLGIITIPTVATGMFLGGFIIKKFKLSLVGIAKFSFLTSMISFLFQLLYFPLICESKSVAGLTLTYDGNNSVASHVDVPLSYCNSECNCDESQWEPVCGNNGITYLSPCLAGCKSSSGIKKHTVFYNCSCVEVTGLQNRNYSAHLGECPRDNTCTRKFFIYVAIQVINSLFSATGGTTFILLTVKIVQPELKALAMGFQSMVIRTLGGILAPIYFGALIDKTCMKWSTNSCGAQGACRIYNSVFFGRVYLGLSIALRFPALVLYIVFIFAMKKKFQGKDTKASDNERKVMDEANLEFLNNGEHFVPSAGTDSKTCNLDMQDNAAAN
Excerpt: (§5) Abbreviations: ABC = ATP binding cassette; BCRP = breast cancer resistance protein; BSEP = bile salt export pump; CYP = cytochrome P450; MATE =
(§6) multidrug and toxic compound extrusion; MDCK = Madin-Darby canine kidney; MDR = multidrug resistance protein; mRNA = messenger ribonucleic acid;
(§7) OAT = organic anion transporter; OATP = organic anion transporter protein; OCT – organic cation transporter; OCTN = organic cation transporter novel; P-gp =
(§8) P-glycoprotein; SLC = solute carrier.

human MATE1 = human MATE1 (Homo sapiens, UniProt Q96FL8); assay: NC-152 transporter inhibition, MATE1
Chain of human MATE1 (Q96FL8 whole entry): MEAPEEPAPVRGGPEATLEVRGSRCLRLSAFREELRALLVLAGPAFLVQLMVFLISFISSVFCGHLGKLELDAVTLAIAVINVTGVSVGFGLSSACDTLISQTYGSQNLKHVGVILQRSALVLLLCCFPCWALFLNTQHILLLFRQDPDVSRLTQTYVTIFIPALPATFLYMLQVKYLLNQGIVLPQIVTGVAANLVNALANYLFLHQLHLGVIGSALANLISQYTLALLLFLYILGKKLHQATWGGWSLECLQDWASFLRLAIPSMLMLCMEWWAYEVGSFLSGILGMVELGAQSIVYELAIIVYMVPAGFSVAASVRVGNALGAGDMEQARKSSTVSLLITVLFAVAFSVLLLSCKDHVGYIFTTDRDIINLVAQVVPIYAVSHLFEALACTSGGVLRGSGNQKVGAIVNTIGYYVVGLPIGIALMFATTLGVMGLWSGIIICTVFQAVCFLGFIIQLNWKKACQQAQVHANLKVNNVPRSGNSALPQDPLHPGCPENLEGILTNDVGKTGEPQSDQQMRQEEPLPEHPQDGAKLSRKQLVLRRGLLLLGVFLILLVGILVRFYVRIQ
Excerpt: as §5, §6, §7, §8

human P-gp = human P-gp (Homo sapiens, UniProt P08183); assay: NC-049 P-gp substrate potential in Caco-2 monolayers; conditions: with/without inhibitors
Excerpt: as §1, §2, §3, §4

CYP2C8 [2] = target: T1, CYP2C8; assay: NC-012 CYP450 inhibition screening, recombinant CYP2C8; conditions: fluorogenic substrate, recombinant human CYP
Excerpt: as §1, §2, §3, §4

MRP2 = MRP2 (Homo sapiens, UniProt Q92887); assay: NC-160 substrate interaction, MRP2; conditions: efflux (ABC) transporter
Excerpt: as §1, §2, §3, §4

OCTN1 = OCTN1 (Homo sapiens, UniProt Q9H015); assay: NC-160 substrate interaction, OCTN1; conditions: uptake SLC transporter
Excerpt: as §1, §2, §3, §4

CYP2C9 [3] = target: T2, CYP2C9 (Homo sapiens, UniProt P11712); assay: NC-153 time-dependent inhibition in human liver microsomes, CYP2C9; conditions: 0.1 to 25 μM
T2 sequence (P11712 whole entry): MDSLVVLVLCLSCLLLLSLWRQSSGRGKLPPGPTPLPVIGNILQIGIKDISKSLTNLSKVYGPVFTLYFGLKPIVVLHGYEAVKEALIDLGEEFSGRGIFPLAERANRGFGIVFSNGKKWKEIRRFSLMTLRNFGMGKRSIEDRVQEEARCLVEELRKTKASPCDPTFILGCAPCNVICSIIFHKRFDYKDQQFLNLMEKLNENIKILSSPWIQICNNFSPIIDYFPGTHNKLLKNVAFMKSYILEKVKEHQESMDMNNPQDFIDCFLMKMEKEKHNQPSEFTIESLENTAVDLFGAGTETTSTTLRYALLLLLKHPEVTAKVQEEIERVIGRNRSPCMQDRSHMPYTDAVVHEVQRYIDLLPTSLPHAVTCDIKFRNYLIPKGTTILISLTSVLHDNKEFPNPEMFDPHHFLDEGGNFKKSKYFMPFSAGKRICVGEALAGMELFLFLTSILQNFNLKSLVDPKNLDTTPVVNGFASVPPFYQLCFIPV
Excerpt: as §1, §2, §3, §4

[4] = tested on: Caco-2 epithelial monolayers; assay: NC-049 membrane permeability in Caco-2 monolayers; conditions: Caco-2 epithelial monolayers expressing human P-gp and BCRP; both transport directions, in the absence and presence of inhibitors; study NC-049
Excerpt: as §1, §2, §3, §4

CYP2C8 [5] = target: T1, CYP2C8; assay: NC-013 CYP2C8 inhibition in human liver microsomes; design: in human liver microsomal preparations; from tissue; host or cells: human liver microsomes; conditions: read-out: IC50, CYP2C8 (weak inhibition)
Excerpt: as §5, §6, §7, §8

human OATP1B1 = human OATP1B1 (Homo sapiens, UniProt Q9Y6L6); assay: NC-052 OATP1B1 substrate study in transiently transfected HEK293 cells
Chain of human OATP1B1 (Q9Y6L6 whole entry): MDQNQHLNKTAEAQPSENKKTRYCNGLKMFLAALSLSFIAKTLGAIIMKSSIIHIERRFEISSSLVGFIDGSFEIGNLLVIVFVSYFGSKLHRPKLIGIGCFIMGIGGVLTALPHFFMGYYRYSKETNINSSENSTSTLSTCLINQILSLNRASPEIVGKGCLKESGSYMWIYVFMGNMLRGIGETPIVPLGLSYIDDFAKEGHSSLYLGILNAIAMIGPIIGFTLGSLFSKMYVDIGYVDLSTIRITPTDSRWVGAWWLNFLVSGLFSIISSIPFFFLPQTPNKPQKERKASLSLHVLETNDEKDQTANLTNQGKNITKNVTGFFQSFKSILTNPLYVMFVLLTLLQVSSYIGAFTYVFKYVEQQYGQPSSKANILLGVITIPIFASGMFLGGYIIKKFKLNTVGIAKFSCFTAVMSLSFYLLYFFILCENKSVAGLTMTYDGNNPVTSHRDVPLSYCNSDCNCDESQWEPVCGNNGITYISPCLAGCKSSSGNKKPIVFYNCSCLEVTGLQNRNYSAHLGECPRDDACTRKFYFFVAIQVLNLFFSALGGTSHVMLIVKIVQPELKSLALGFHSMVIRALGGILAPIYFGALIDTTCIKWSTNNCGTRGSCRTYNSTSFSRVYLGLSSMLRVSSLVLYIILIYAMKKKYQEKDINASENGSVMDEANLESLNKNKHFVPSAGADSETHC
Excerpt: as §1, §2, §3, §4

CYP2C19 = CYP2C19 (Homo sapiens, UniProt P33261); assay: NC-012 CYP450 inhibition screening, recombinant CYP2C19; conditions: 10 μM, fluorogenic substrate, recombinant human CYP
Chain of CYP2C19 (P33261 whole entry): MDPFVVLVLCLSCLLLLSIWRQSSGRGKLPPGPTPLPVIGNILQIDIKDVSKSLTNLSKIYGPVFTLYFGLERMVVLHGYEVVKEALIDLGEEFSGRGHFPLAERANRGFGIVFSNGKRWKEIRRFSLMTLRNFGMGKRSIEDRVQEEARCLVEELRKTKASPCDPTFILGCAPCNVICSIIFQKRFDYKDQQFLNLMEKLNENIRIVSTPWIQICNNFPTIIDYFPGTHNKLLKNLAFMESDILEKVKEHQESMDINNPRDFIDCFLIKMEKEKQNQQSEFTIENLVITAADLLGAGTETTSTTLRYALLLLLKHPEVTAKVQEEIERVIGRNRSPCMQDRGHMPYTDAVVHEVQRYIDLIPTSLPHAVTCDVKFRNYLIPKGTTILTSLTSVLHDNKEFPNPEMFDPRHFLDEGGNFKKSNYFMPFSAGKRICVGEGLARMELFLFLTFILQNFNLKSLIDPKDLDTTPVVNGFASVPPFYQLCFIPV
Excerpt: as §1, §2, §3, §4

OCTN2 = OCTN2 (Homo sapiens, UniProt O76082); assay: NC-160 substrate interaction, OCTN2; conditions: uptake SLC transporter
Chain of OCTN2 (O76082 whole entry): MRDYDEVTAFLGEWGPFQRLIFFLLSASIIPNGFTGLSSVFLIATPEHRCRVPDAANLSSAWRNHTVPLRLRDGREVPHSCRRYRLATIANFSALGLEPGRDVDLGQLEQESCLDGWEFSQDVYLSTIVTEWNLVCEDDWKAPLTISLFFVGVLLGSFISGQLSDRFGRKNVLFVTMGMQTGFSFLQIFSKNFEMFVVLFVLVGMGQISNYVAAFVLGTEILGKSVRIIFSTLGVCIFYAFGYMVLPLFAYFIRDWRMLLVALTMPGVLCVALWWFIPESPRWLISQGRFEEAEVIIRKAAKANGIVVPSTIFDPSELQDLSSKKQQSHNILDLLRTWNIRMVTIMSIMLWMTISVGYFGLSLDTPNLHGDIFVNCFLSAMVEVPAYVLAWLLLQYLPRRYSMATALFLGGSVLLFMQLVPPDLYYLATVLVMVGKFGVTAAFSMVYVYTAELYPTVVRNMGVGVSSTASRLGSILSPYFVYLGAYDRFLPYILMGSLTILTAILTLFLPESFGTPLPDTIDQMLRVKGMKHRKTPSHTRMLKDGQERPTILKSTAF
Excerpt: as §1, §2, §3, §4

CYP2C9 [6] = target: T2, CYP2C9; assay: NC-012 CYP450 inhibition screening, recombinant CYP2C9; conditions: 10 μM, fluorogenic substrate, recombinant human CYP
Excerpt: as §1, §2, §3, §4

BCRP = BCRP (Homo sapiens, UniProt Q9UNQ0); assay: NC-049 BCRP substrate potential in Caco-2 monolayers; conditions: with/without inhibitors
Excerpt: as §1, §2, §3, §4

CYP3A4 = CYP3A4 (Homo sapiens, UniProt P08684); assay: NC-012 CYP450 inhibition screening, recombinant CYP3A4; conditions: benzyloxyresorufin substrate, recombinant human CYP
Chain of CYP3A4 (P08684 whole entry): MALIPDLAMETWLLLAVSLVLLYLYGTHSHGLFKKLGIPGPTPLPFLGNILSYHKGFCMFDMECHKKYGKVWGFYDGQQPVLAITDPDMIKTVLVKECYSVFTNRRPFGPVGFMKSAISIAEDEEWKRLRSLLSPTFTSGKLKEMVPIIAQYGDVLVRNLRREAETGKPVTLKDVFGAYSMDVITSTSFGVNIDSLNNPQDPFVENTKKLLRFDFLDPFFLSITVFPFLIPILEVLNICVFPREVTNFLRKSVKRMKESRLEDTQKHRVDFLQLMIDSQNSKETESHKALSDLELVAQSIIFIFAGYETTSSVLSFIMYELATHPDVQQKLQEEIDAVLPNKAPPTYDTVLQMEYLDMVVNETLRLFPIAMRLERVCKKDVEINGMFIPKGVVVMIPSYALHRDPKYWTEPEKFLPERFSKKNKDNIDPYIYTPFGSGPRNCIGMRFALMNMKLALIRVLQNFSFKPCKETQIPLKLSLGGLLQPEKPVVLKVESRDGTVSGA
Excerpt: as §1, §2, §3, §4

CYP1A2 = CYP1A2 (Homo sapiens, UniProt P05177); assay: NC-012 CYP450 inhibition screening, recombinant CYP1A2; conditions: 10 μM, fluorogenic substrate, recombinant human CYP
Chain of CYP1A2 (P05177 whole entry): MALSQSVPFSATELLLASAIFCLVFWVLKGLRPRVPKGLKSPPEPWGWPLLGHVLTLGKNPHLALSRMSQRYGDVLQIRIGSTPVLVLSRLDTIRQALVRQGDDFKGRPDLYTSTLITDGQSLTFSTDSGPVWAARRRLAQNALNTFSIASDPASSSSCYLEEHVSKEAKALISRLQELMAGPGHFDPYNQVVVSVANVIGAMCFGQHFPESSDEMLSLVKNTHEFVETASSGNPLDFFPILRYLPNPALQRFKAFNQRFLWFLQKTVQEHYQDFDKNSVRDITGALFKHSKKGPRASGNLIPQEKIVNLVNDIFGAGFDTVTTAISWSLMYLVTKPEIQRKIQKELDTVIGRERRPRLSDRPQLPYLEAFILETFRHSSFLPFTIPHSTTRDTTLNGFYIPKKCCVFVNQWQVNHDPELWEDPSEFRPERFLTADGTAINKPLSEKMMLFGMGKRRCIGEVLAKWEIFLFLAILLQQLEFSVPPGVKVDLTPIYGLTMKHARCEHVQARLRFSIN
Excerpt: as §1, §2, §3, §4

[7] = in vitro cell test system, NC-152

In the case of `CCCCCOc1ccc(-c2ccc(-c3ccc(C(=O)N[C@H]4C[C@@H](O)[C@@H](OCC[N+](C)(C)C)NC(=O)[C@@H]5[C@@H](O)[C@@H](C)CN5C(=O)[C@H]([C@@H](C)O)NC(=O)[C@H]([C@H](O)[C@@H](O)c5ccc(O)cc5)NC(=O)[C@@H]5C[C@@H](O)CN5C(=O)[C@H]([C@@H](C)O)NC4=O)cc3)cc2)cc1` [Rezafungin] ({pTerphenylCO(4''-OnC5H11)}-[Orn(4R-OH,5R-OCH2CH2NMe3+)]T[Hyp][hTyr(3S-OH,4S-OH)]T[Pro(3S-OH,4S-Me)]; lactam 1-C), the “time-dependent inhibitor of CYP2C8” value (CYP2C8 [1]) is reported as “not a time-dependent inhibitor”, the “inhibitor of probe substrate transport mediated via OATP1B3” value (human OATP1B3; [7]) is reported as “determined to be an inhibitor” and the IC50 (human OATP1B3; initial in vitro studies, read-out: IC50, OATP-1B3 uptake transporter (moderate inhibition)) is reported as over 6 µM. The “inhibitor of probe substrate transport mediated via MATE1” value (human MATE1; [7]) was “determined to be an inhibitor”, the IC50 (human MATE1; initial in vitro studies, read-out: IC50, MATE-1 uptake transporter (moderate inhibition)) was over 6 µM and the “substrate of P-gp” value (human P-gp) was “not a substrate”. For the same molecule, the inhibition at 10 µM (CYP2C8 [2]) was 63%, the “substrate of MRP2” value (MRP2) was “not a substrate” and the “substrate of OCTN1” value (OCTN1) was “not a substrate”. For the same molecule, the “time-dependent inhibitor of CYP2C9” value (CYP2C9 [3]) was “not a time-dependent inhibitor”, the permeability coefficient [4] was under 0.2 ×10⁻⁶ cm/s and the IC50 (CYP2C8 [5]) was over 25 µM. The “substrate of OATP1B1” value (human OATP1B1) was “not to be a substrate”, the “uptake ratio, OATP1B1” value (human OATP1B1) was under 2 and the “inhibition of CYP2C19” value (CYP2C19) was “Minimal inhibition”. For the same molecule, the “substrate of OCTN2” value (OCTN2) was “not a substrate”, the “inhibition of CYP2C9” value (CYP2C9 [6]) was “Minimal inhibition” and the “substrate of BCRP” value (BCRP) was “not a substrate”. For the same molecule, the inhibition at 10 µM (CYP3A4) was 81% and the “inhibition of CYP1A2” value (CYP1A2) was “Minimal inhibition”.
